In patent publication US20240415819A1, “MACROCYCLIC COMPOUNDS AS PROTEASOME SUBUNIT BETA TYPE-5 INHIBITORS” (Lead Discovery Center GmbH, priority 2021, published 2024) one finds IC50 data, which are given here for twelve molecules.

Assay [1] has as its target T1, β5 subunit of the human constitutive proteasome (CPS) (Homo sapiens, UniProt P28074).
T1 construct: purchased Boston Biochem E-360
The experiment in a line: β5 inhibition assay, human constitutive proteasome (Suc-LLVY-AMC). The class given is biochemical. As to conditions: IC50 class, Suc-LLVY-AMC substrate. As for the experimental part: The enzymatic activity of the β5 subunit of the human constitutive proteasome (CPS) is analyzed. In another assay, which differs from the assay of the human constitutive proteasome only in using the human immunoproteasome (IPS) the enzymatic activity of the β5 subunit of the human immunoproteasome (IPS) is analyzed. […] Inhibition is indicated as IC50 [nM] (“-”=not measured).

Assay [2] deals with T2, β5 subunit of the human immunoproteasome (IPS) (Homo sapiens, UniProt P28062).
T2 construct: purchased Boston Biochem E-370
The experiment in a line: β5 inhibition assay, human immunoproteasome (Suc-LLVY-AMC). As to conditions: IC50 class, Suc-LLVY-AMC substrate. The class given is biochemical. The essentials: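 β5 activity is read as liberated AMC fluorescence (355/460 nm) after 4 h dark reaction at RT with 22.6 μM Suc-LLVY-AMC, stopped by 1 μM bortezomib. Beforehand, 1 nM human IPS and compound sat 10 min at RT in HEPES pH 7.5 buffer containing NaCl, 0.02% SDS and DTT.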

Assay [3] deals with A549 (human lung carcinoma cell line). The experiment in a line: Glo assay of A549 cells (Table 3; ProteasomeGlo plating scheme). The class given is cell-based. Particulars: Homo sapiens. The method in brief:
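Compound treatment lasts 105 minutes at 37° C. under 5% CO2. Suc-LLVY-Glo substrate premixed with detection reagent (60 min at room temperature) is then added directly to the cells, and luminescence after 10-15 min in the dark gives the IC50 in nM.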

Assay [4] concerns Hs 746T (human gastric carcinoma cell line). Put plainly: 48 hr CTG viability assay, Hs 746T. The class given is cell-based. As to conditions: Hs746T. The procedure:
(§1) A viability assay was conducted for 48 hours to evaluate the inhibition of cancer cell growth by proteasome inhibitors. Briefly, the candidate cell line was plated with a 96-well plate following density of cells, respectively. 6×10^3 Cells/well for A2780 (human ovarian cancer cell line) and MDA-MB-468 (breast carcinoma), 8×10^3 Cells/well for Hs746T (human gastric carcinoma cell line), 1.1×10^4 Cells/well for MM1 S and RPMI 8226 (multiple myeloma). After 24 hours, the cells were treated with various concentrations of the compound (ranging from 0.0015 uM to 10 uM). […] After 48 hours of incubation at 37° C., 5% CO2 incubator, cells were analyzed for viability using the CellTiter-Glo Luminescent Cell Viability assay (Promega, Cat #G7570). All viability assays were performed in duplicate and Luminescence was read using an Envision (Perkin Elmer, USA). Data were analyzed using XLfit software. […] (human gastric carcinoma cell line), MM1 S (B lymphoblast cell line), and RPMI 8226 (B lymphocyte cell line, multiple myeloma). Inhibition is indicated as IC50 [nM] (“-”=not measured).

Assay [5] relates to MM1 S (B lymphoblast cell line). Put plainly: 48 hr CTG viability assay, MM1S. The class given is cell-based. Particulars: Homo sapiens. The procedure: as §1
Assay [6] concerns RPMI 8226 (B lymphocyte cell line, multiple myeloma). Put plainly: 48 hr CTG viability assay, RPMI 8226. The class given is cell-based. As to conditions: Homo sapiens. The procedure: as §1
Setting [7] is: A549 cells, read-out: PGLo A549.
Setting [8] is: 48 hr CTG, read-out: Hs 746T IC50.
Setting [9] is: RPMI-8226, 48 hr CTG, read-out: RPMI-8226 IC50.

Structures are written as SMILES. Like-named read-outs stand apart in the source and are kept apart here. A value given as a limit tells only on which side of the number the result lay.

Consider `Cc1ccc2cc1CNC(=O)[C@H](CCc1ccccc1)NC(=O)[C@@H](NC(=O)N1CCc3cnccc31)CC(=O)N1CCCC(CCO2)C1` (stereo partly drawn) [Compound 703, N-((9S,12S)-5^4-methyl-8,11,14-trioxo-9-phenethyl-4-oxa-7,10-diaza-1(3,1)-piperidina-5(1,3)-benzenacyclotetradecaphane-12-yl)-2,3-dihydro-1H-pyrrolo[3,2-c]pyridine-1-carboxamide], for which the IC50 in assay [1] is under 100 nM; in assay [2], under 100 nM; in assay [3] (setting [7]), under 100 nM; in assay [4] (setting [8]) it was under 100 nM; in assay [5] (48 hr CTG, read-out: MM1S IC50), under 100 nM; in assay [6] (setting [9]) it was under 100 nM.
`Cc1ccc2cc1CNC(=O)[C@H](CCN1C[C@@H]3C[C@H]1CO3)NC(=O)[C@@H](NC(=O)Cc1cn3ccsc3n1)CC(=O)N1CCCC(CCO2)C1` [Compound 739, N-((9S,12S)-9-(2-((1S,4S)-2-oxa-5-azabicyclo[2.2.1]heptan-5-yl)ethyl)-5^4-methyl-8,11,14-trioxo-4-oxa-7,10-diaza-1(3,1)-piperidina-5(1,3)-benzenacyclotetradecaphane-12-yl)-2-(imidazo[2,1-b]thiazol-6-yl)acetamide]: the IC50 in assay [1] is under 100 nM; in assay [2], under 100 nM; in assay [3] (setting [7]) it was under 100 nM; in assay [4] (setting [8]) it was 100 to 500 nM; in assay [5] (48 hr CTG, read-out: MM1S IC50), under 100 nM; in assay [6] (setting [9]) it was under 100 nM.
Consider `Cc1ccc2cc1CNC(=O)[C@H](CCc1ccccc1)NC(=O)[C@@H](NC(=O)Cc1ccccc1)CCN(C)C(=O)N1CCCC(CCO2)C1` (stereo partly drawn) [Compound 696, N-((9S,12S)-5^4,15-dimethyl-8,11,16-trioxo-9-phenethyl-4-oxa-7,10,15-triaza-1(3,1)-piperidina-5(1,3)-benzenacyclohexadecaphane-12-yl)-2-phenylacetamide], for which the IC50 in assay [1] is under 100 nM; in assay [2], under 100 nM; in assay [3] (A549, read-out: PGLo A549 [nM]) it was under 100 nM; in assay [4] (48 h, read-out: Hs 746T IC50 [nM]), under 100 nM; in assay [5] (48 h, read-out: MM1S IC50 [nM]) it was under 100 nM; in assay [6] (RPMI-8226, 48 h, read-out: RPMI-8226 IC50 [nM]) it was under 100 nM.
For `Cc1ccc2cc1CNC(=O)[C@H](CCc1ccccc1)NC(=O)[C@@H](NC(=O)CCNC(=O)c1ccc(N3CCOCC3)cc1)CC(=O)N1CCCC(CCO2)C1` (stereo partly drawn) [Compound 604, N-(3-(((9S,12S)-5^4-methyl-8,11,14-trioxo-9-phenethyl-4-oxa-7,10-diaza-1(3,1)-piperidina-5(1,3)-benzenacyclotetradecaphane-12-yl)amino)-3-oxopropyl)-4-morpholinobenzamide], the IC50 is under 100 nM in assay [1]; under 100 nM in assay [2]; under 100 nM in assay [3] (setting [7]); under 100 nM in assay [4] (setting [8]); under 100 nM in assay [5] (48 hr CTG, read-out: MM1S IC50); under 100 nM in assay [6] (setting [9]).
As for `Cc1ccc2cc1CNC(=O)[C@H](CCc1ccccc1)NC(=O)[C@@H](NC(=O)CCNC1CCC1)CC(=O)N1CCCC(CCO2)C1` (stereo partly drawn) [Compound 680, 3-(cyclobutylamino)-N-((9S,12S)-5^4-methyl-8,11,14-trioxo-9-phenethyl-4-oxa-7,10-diaza-1(3,1)-piperidina-5(1,3)-benzenacyclotetradecaphane-12-yl)propanamide], the IC50 was under 100 nM in assay [1]; under 100 nM in assay [2]; under 100 nM in assay [3] (setting [7]); under 100 nM in assay [4] (setting [8]); under 100 nM in assay [5] (48 hr CTG, read-out: MM1S IC50); under 100 nM in assay [6] (setting [9]).
On to `Cc1ccc2cc1CNC(=O)[C@H](CCc1ccccc1)NC(=O)[C@@H](NC(=O)CCN[C@@H]1C[C@H]3CC[C@@H]1C3)CC(=O)N1CCCC(CCO2)C1` [Compound 695, 3-(((1R,2R,4S)-bicyclo[2.2.1]heptan-2-yl)amino)-N-((9S,12S)-5^4-methyl-8,11,14-trioxo-9-phenethyl-4-oxa-7,10-diaza-1(3,1)-piperidina-5(1,3)-benzenacyclotetradecaphane-12-yl)propanamide], for which the IC50 in assay [1] was under 100 nM; in assay [2], under 100 nM; in assay [3] (setting [7]), under 100 nM; in assay [4] (setting [8]) it was under 100 nM; in assay [5] (48 hr CTG, read-out: MM1S IC50), under 100 nM; in assay [6] (setting [9]), under 100 nM.
In the case of `Cc1ccc2cc1CNC(=O)[C@H](CCc1ccccc1)NC(=O)[C@@H](NC(=O)C1CC3(C1)CN(C(=O)OC(C)(C)C)C3)CC(=O)N1CCCC(CCO2)C1` (stereo partly drawn) [Compound 580, tert-butyl 6-(((9S,12S)-5^4-methyl-8,11,14-trioxo-9-phenethyl-4-oxa-7,10-diaza-1(3,1)-piperidina-5(1,3)-benzenacyclotetradecaphane-12-yl)carbamoyl)-2-azaspiro[3.3]heptane-2-carboxylate], the IC50 in assay [1] was under 100 nM; in assay [2], under 100 nM; in assay [3] (setting [7]) it was under 100 nM; in assay [4] (setting [8]), under 100 nM; in assay [5] (48 hr CTG, read-out: MM1S IC50), under 100 nM; in assay [6] (setting [9]) it was under 100 nM.
Take `Cc1ccc2cc1CNC(=O)[C@H](CCc1ccccc1)NC(=O)[C@@H](NC(=O)CCNCCC1CCCC1)CC(=O)N1CCCC(CCO2)C1` (stereo partly drawn) [Compound 700, 3-((2-cyclopentylethyl)amino)-N-((9S,12S)-5^4-methyl-8,11,14-trioxo-9-phenethyl-4-oxa-7,10-diaza-1(3,1)-piperidina-5(1,3)-benzenacyclotetradecaphane-12-yl)propanamide]: the IC50 in assay [1] is under 100 nM; in assay [2], under 100 nM; in assay [3] (setting [7]), under 100 nM; in assay [4] (setting [8]) it was under 100 nM; in assay [5] (48 hr CTG, read-out: MM1S IC50), under 100 nM; in assay [6] (setting [9]), under 100 nM.
On to `Cc1ccc2cc1CNC(=O)[C@H](CCc1ccccc1)NC(=O)[C@@H](NC(=O)CCN1CCC3(CCOCC3)CC1)CC(=O)N1CCCC(CCO2)C1` (stereo partly drawn) [Compound 611, N-((9S,12S)-5^4-methyl-8,11,14-trioxo-9-phenethyl-4-oxa-7,10-diaza-1(3,1)-piperidina-5(1,3)-benzenacyclotetradecaphane-12-yl)-3-(3-oxa-9-azaspiro[5.5]undecan-9-yl)propanamide], for which the IC50 in assay [1] was under 100 nM; in assay [2] it was under 100 nM; in assay [3] (setting [7]) it was under 100 nM; in assay [4] (setting [8]), under 100 nM; in assay [5] (48 hr CTG, read-out: MM1S IC50), under 100 nM; in assay [6] (setting [9]), under 100 nM.
Consider `Cc1ccc2cc1CNC(=O)[C@H](CCc1ccccc1)NC(=O)[C@@H](NC(=O)CN1CCC1)CC(=O)N1CCCC(CCO2)C1` (stereo partly drawn) [Compound 663, 2-(azetidin-1-yl)-N-((9S,12S)-5^4-methyl-8,11,14-trioxo-9-phenethyl-4-oxa-7,10-diaza-1(3,1)-piperidina-5(1,3)-benzenacyclotetradecaphane-12-yl)acetamide], for which the IC50 in assay [1] was under 100 nM; in assay [2], under 100 nM; in assay [3] (setting [7]), under 100 nM; in assay [4] (setting [8]), under 100 nM; in assay [5] (48 hr CTG, read-out: MM1S IC50) it was under 100 nM; in assay [6] (setting [9]), under 100 nM.
Take `Cc1ccc2cc1CNC(=O)[C@H](CCc1cccnc1)NC(=O)[C@@H](NC(=O)Cc1ccc(N)cc1C)CC(=O)N1CCCC(CCO2)C1` (stereo partly drawn) [Compound 645, 2-(4-amino-2-methylphenyl)-N-((9S,12S)-5^4-methyl-8,11,14-trioxo-9-(2-(pyridin-3-yl)ethyl)-4-oxa-7,10-diaza-1(3,1)-piperidina-5(1,3)-benzenacyclotetradecaphane-12-yl)acetamide]: the IC50 in assay [1] is under 100 nM; in assay [2], under 100 nM; in assay [3] (setting [7]) it was under 100 nM; in assay [4] (setting [8]), under 100 nM; in assay [5] (48 hr CTG, read-out: MM1S IC50), under 100 nM; in assay [6] (setting [9]) it was under 100 nM.
As to `Cc1ccc2cc1CNC(=O)[C@H](CCc1ccccc1)NC(=O)[C@@H](NC(=O)C(C)(C)C(F)(F)F)CC(=O)N1CCCC(CCO2)C1` (stereo partly drawn) [Compound 646, 3,3,3-trifluoro-2,2-dimethyl-N-((9S,12S)-5^4-methyl-8,11,14-trioxo-9-phenethyl-4-oxa-7,10-diaza-1(3,1)-piperidina-5(1,3)-benzenacyclotetradecaphane-12-yl)propanamide], the IC50 in assay [1] was under 100 nM; in assay [2], under 100 nM; in assay [3] (setting [7]) it was under 100 nM; in assay [4] (setting [8]), under 100 nM; in assay [5] (48 hr CTG, read-out: MM1S IC50), under 100 nM; in assay [6] (setting [9]) it was under 100 nM.
